1 compound from patent US12059230B2, “Extending fluorescent assays in vivo for biomedical sensing: wavelength modulation spectroscopy” (MASSACHUSETTS INSTITUTE OF TECHNOLOGY, priority 2019, dated 2024) can be followed below.

Data set [1] in a line: In vitro hydrogel dynamics: sensor response fitted to the diffusion equation. It is filed as physicochemical. The conditions noted are these: 10×10×2 mm^3 gel with 20 mg/l (AC)15-SWNTs, 100 μM riboflavin. Here is the method: FIG. 33 depicts in vitro hydrogel dynamics. […] The black curve represents the measured data, while the red line is a fit to the diffusion equation, yielding a diffusion constant of 1.04×10^−6 cm^2/s.
Hydrogel preparation. The nanotube embedded hydrogels were prepared using polyethylene glycol diacrylate from Alfa Aesar using a PEG chain length of 8000 Da (PEG8000DA). The UV triggered initiator was 2-hydroxy-4′-(2-hydroxyethoxy)-2-methylpropiophenone from Sigma Aldrich and was dissolved in a stock solution of 7 mg/mL in water before polymerization. […] The hydrogel precursor solution is held under a flowing N2 atmosphere for 30 minutes to remove dissolved oxygen. After degassing, the solution is pipetted into glass molds and returned to the nitrogen atmosphere. The molds are then exposed to 365 nm UV light (UVP Blak-Ray XX-15BLB) for 45 minutes to polymerize. Afterwards, the hydrogels were removed from the molds and left to incubate in 1×PBS overnight to remove any unreacted monomer to free-floating SWNT. Then the PBS solution was exchanged to a fresh solution and the hydrogels were ready to use.
The interaction between an analyte and the hydrogel sensor is further described with analyte diffusion. The mathematical model solves the following nondimensionalized unsteady diffusion model and boundary conditions: […]

A short description of data set [2]: In vivo sensor response to riboflavin injection in SKH1-E mouse (intraperitoneal implant). The conditions noted are these: 300 μM riboflavin injected through catheter. The source says:
FIGS. 5A-5H depict in vivo sensing. […] Scale bars are 5 mm. […] Sham stands for gels without a sensor, flipped configuration represents a mouse laying on its back with the signal passing through the full thickness of the animal body. […] The scale bar is 5 mm. […] The single laser excitation was at 730 nm. WIFF system was modulated at 2 Hz between 680, 730, and 780 nm. The emission collection was at >1100 nm.
FIGS. 32A-32B depict sensing experiments with mice. […] Five replicas on biologically independent animals. Sensors (10×10×2 mm^3 gel with 20 mg/l (AC)15-SWNTs)) were implanted into the intraperitoneal space of mice. […] The time t=0 corresponds to the time of injection.
The ultimate goal of fluorescent sensing is to detect analytes in vivo at the implantation point and wirelessly transmit the signal to the surface of the body. […] These types of measurements are critical for many biomedical problems focused on tissue permeability, such as targeted delivery of therapeutics, and changes in vascular permeability related to disorders, either as the origin or manifestation of various diseases. […]

`Cc1cc2nc3c(=O)[nH]c(=O)nc-3n(C[C@H](O)[C@H](O)[C@H](O)CO)c2cc1C` [riboflavin]: the “diffusion constant in the hydrogel” value in data set [1] is reported as 1.04×10^−6 cm^2/s. For the same compound, the “onset time of quenching after the injection” value in data set [2] amounted to 51 s. Moreover, the sensor quenching in data set [2] (intraperitoneal sensor, WIFF) is listed as 17%.
